Literature values in article PMC9410468 (Marine Drugs, 2022).

Test system: rats
Details: rat, in vivo; cited from earlier work
Excerpt: In the mammalian brain, the medial habenula (MHB) expresses high nAChR levels. Recently, α3-containing nAChRs present in the medial habenula have attracted substantial attention because of their potential role in influencing nicotine addiction. In addition, recent studies have shown that the gene polymorphism of the α3 and β4 subunits in vivo are related to nicotine addiction and drug abuse. The α3β4 nAChR subtype is mainly located in the MHB, […] (IPN), and fasciculus retroflexus (FR) of the rat brain. In addition, it is also expres ...

For AT-1001, the “effect on nicotine self-administration (in words)” value is given as “reduce nicotine self-administration in rats”.
